Results: paper PMC9515629, “Cystargolide-based amide and ester Pz analogues as proteasome inhibitors and anti-cancer agents” (Royal Society Open Science, 2022)
Where two headings read alike, the source gives them in different places.

Columns and labels:
MCF-7 cells [1] = assay: Cytotoxicity toward MCF-7 cells; assay type: cell-based; settings: Homo sapiens, MCF7; read-out: cytotoxicity IC50 ± s.d., MCF-7
Method: (§1) Next, analogues 8a–l were evaluated for their cytotoxicities toward Jurkat cells, a human T-cell leukemia model, as well as the breast cancer cell lines MCF-7 and MDA-MB-231, and the multiple myeloma cell line RPMI 8226.

MDA-MB-231 cells [2] = assay: Cytotoxicity toward MDA-MB-231 cells; assay type: cell-based; settings: Homo sapiens, read-out: cytotoxicity IC50 ± s.d., MDA-MB-231
Method: as §1

RPMI 8226 cells [3] = assay: Cytotoxicity toward RPMI 8226 cells; assay type: cell-based; settings: Homo sapiens, read-out: cytotoxicity IC50 ± s.d., RPMI 8226
Method: as §1

[4] = target: T1, β5 subunit of human proteasomes (hβ5) (Homo sapiens, UniProt P28074); assay: Proteasome chymotrypsin-like (β5) activity in crude Jurkat cell lysate, Suc-LLVY-AMC substrate; assay type: biochemical; settings: read-out: proteasome inhibition IC50 ± s.d., hβ5
T1 construct: endogenous in cells; host or cells: Jurkat cell lysate (crude)
T1 sequence (P28074 60-263): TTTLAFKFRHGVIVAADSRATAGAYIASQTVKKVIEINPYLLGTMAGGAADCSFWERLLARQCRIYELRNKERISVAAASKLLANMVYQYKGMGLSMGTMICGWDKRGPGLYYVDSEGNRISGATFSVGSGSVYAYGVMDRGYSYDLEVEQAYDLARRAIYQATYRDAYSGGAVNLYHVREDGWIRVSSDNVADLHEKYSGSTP
Method: Based on our previously reported procedure, the degree of peptide cleavage in a crude Jurkat cell lysate was measured to determine proteasome activity. The fluorescent substrate Suc-LLVY-AMC (Enzo Life Sciences) was used to determine chymotrypsin-like (β5) activity of the proteasomes.

Jurkat cells = assay: Cytotoxicity toward Jurkat cells; assay type: cell-based; settings: Homo sapiens, read-out: cytotoxicity IC50 ± s.d., Jurkat
Method: as §1

[5] = Biological stability in serum; assay type: in vitro ADME
Description: (§2) Isosteric replacement of the phenyl ring at Pz by either a pyridyl or pyrazyl group was well tolerated, allowing the inclusion of one (compounds 8b–d and 8g–i) or two nitrogen atoms (compounds 8e and 8j).

[6] = Experimentally determined LogP; assay type: physicochemical
Half-life in buffer = assay type: physicochemical
Description: as §2

MCF-10A cells = assay: Cytotoxicity toward MCF-10A cells (normal breast tissue model); assay type: cell-based; settings: Homo sapiens, model for normal breast tissue
[7] = cited from earlier work
RPMI 8226 cells [8] = tested on: RPMI 8226 cells; set-up: method as in PMID 30165344; settings: earlier work; read-out: cytotoxicity IC50, RPMI 8226; cited from earlier work
MCF-7 cells [9] = tested on: MCF-7 cells; set-up: method as in PMID 30165344; settings: earlier work; read-out: cytotoxicity IC50, MCF-7; cited from earlier work
MDA-MB-231 cells [10] = tested on: MDA-MB-231 cells; set-up: method as in PMID 30165344; settings: earlier work; read-out: cytotoxicity IC50, MDA-MB-231; cited from earlier work

SMILES	IC50 [4] [nM]	biological stability in serum [5]	logP [6]	half-life (Half-life in buffer) [min]	IC50 (MCF-7 cells [1]) [nM]	IC50 (MDA-MB-231 cells [2]) [nM]	IC50 (RPMI 8226 cells [3]) [nM]	IC50 (Jurkat cells) [nM]	IC50 (MCF-10A cells) [nM]	peripheral neuropathy, share of patients [7]	IC50 (RPMI 8226 cells [8]) [nM]	IC50 (MCF-7 cells [9]) [nM]	IC50 (MDA-MB-231 cells [10]) [nM]
CC[C@H](C)[C@@H]1C(=O)O[C@H]1C(=O)N[C@H](C(=O)N[C@@H](COCc1ccccc1)C(=O)OCc1ccc(Cl)cc1)C(C)C [8k]	18.2 ± 54	–	–	–	3500 ± 279	222 ± 15	182 ± 4	182 ± 15	–	–	–	–	–
CC[C@H](C)[C@@H]1C(=O)O[C@H]1C(=O)N[C@H](C(=O)N[C@@H](COCc1ccccc1)C(=O)OCc1ccccn1)C(C)C [8g]	7.1 ± 1.6	greater than 5 min	1.65	> 10	1020 ± 42	39 ± 2	21 ± 3	35 ± 10	123	–	–	–	–
CC[C@H](C)[C@@H]1C(=O)O[C@H]1C(=O)N[C@H](C(=O)N[C@@H](COCc1ccccc1)C(=O)OCc1ccc(OC)cc1)C(C)C [8l]	18.8 ± 5	–	–	–	1670 ± 267	636 ± 47	112 ± 2	2260 ± 158	–	–	–	–	–
CC(C)C[C@H](NC(=O)[C@H](CCc1ccccc1)NC(=O)CN1CCOCC1)C(=O)N[C@@H](Cc1ccccc1)C(=O)N[C@@H](CC(C)C)C(=O)[C@@]1(C)CO1 [carfilzomib, reference compound]	–	–	–	–	5.9 ± 0.7	4.4 ± 0.1	3.7 ± 0.3	3.7 ± 0.3	79	–	–	–	–
CC(C)C[C@H](NC(=O)[C@H](Cc1ccccc1)NC(=O)c1cnccn1)B(O)O [bortezomib]	–	–	–	–	–	–	–	–	–	more than 30%	–	–	–
CC[C@H](C)[C@@H]1C(=O)O[C@H]1C(=O)N[C@H](C(=O)N[C@@H](COCc1ccccc1)C(=O)NCc1cnccn1)C(C)C [8e]	8.4 ± 3.4	–	–	–	5180 ± 602	255 ± 6	31 ± 2	132 ± 4	–	–	–	–	–
CC[C@H](C)[C@@H]1C(=O)O[C@H]1C(=O)N[C@H](C(=O)N[C@@H](COCc1ccccc1)C(=O)NCc1cc(OC)cc(OC)c1)C(C)C [8f]	4.5 ± 1.5	–	–	–	322 ± 39	53 ± 2	26 ± 1	63 ± 2	–	–	–	–	–
CC[C@H](C)[C@@H]1C(=O)O[C@H]1C(=O)N[C@H](C(=O)N[C@@H](COCc1ccccc1)C(=O)NCc1ccccn1)C(C)C [8b]	4.1 ± 1.9	–	–	–	453 ± 24	156 ± 3	139 ± 6	58 ± 14	–	–	–	–	–
CC[C@H](C)[C@@H]1C(=O)O[C@H]1C(=O)N[C@H](C(=O)N[C@@H](COCc1ccccc1)C(=O)OCc1cnccn1)C(C)C [8j]	13.7 ± 1.6	–	–	–	4530 ± 290	146 ± 3	48 ± 2	166 ± 9	–	–	–	–	–
CC[C@H](C)[C@@H]1C(=O)O[C@H]1C(=O)N[C@H](C(=O)N[C@@H](COCc1ccccc1)C(=O)OCc1ccccc1)C(C)C [compound 1]	–	–	–	–	2380 ± 261	620 ± 50	45 ± 0.5	62 ± 7	–	–	41	416	74

Second part, led by results:

IC50 [4] [nM]	biological stability in serum [5]	logP [6]	half-life (Half-life in buffer) [min]	SMILES	IC50 (MCF-7 cells [1]) [nM]	IC50 (MDA-MB-231 cells [2]) [nM]	IC50 (RPMI 8226 cells [3]) [nM]	IC50 (Jurkat cells) [nM]	IC50 (MCF-10A cells) [nM]	peripheral neuropathy, share of patients [7]	IC50 (RPMI 8226 cells [8]) [nM]	IC50 (MCF-7 cells [9]) [nM]	IC50 (MDA-MB-231 cells [10]) [nM]
3.3 ± 1.8	–	–	–	CC[C@H](C)[C@@H]1C(=O)O[C@H]1C(=O)N[C@H](C(=O)N[C@@H](COCc1ccccc1)C(=O)OCc1cccnc1)C(C)C [8h]	3800 ± 293	132 ± 3	43 ± 2	61 ± 16	–	–	–	–	–
4 ± 1.1	–	–	–	CC[C@H](C)[C@@H]1C(=O)O[C@H]1C(=O)N[C@H](C(=O)N[C@@H](COCc1ccccc1)C(=O)OCc1ccncc1)C(C)C [8i]	4930 ± 403	108 ± 7	35 ± 3	36 ± 10	–	–	–	–	–
2.3 ± 0.9	–	–	–	CC[C@H](C)[C@@H]1C(=O)O[C@H]1C(=O)N[C@H](C(=O)N[C@@H](COCc1ccccc1)C(=O)NCc1ccccc1)C(C)C [8a]	2290 ± 195	1940 ± 166	64 ± 4	12 ± 2	–	–	–	–	–
3 ± 1.2	–	–	–	CC[C@H](C)[C@@H]1C(=O)O[C@H]1C(=O)N[C@H](C(=O)N[C@@H](COCc1ccccc1)C(=O)NCc1ccncc1)C(C)C [8d]	5300 ± 598	328 ± 12	37 ± 1	64 ± 10	–	–	–	–	–
3.9 ± 1.8	–	–	–	CC[C@H](C)[C@@H]1C(=O)O[C@H]1C(=O)N[C@H](C(=O)N[C@@H](COCc1ccccc1)C(=O)NCc1cccnc1)C(C)C [8c]	5630 ± 550	242 ± 6	85 ± 3	71 ± 19	–	–	–	–	–
